Data published in the NIST ThermoML archive (doi:10.1021/acs.jced.5b00385).
Numbers after ± are expanded uncertainties.

Details: Liquid, Vibrating tube method

CCOC(=O)CCC(=O)OCC [diethyl butanedioate]
mass density (283.56 K, 100010 kPa): 1102.48 ± 1.3 kg/m3 | mass density (283.57 K, 100 kPa): 1049.61 ± 1.1 kg/m3 | mass density (283.57 K, 1000 kPa): 1050.21 ± 1.1 kg/m3 | mass density (283.57 K, 3000 kPa): 1051.56 ± 1.1 kg/m3 | mass density (283.57 K, 5000 kPa): 1052.88 ± 1.1 kg/m3 | mass density (283.57 K, 10000 kPa): 1056.11 ± 1.1 kg/m3 | mass density (283.57 K, 15000 kPa): 1059.25 ± 1.1 kg/m3 | mass density (283.57 K, 30000 kPa): 1068.16 ± 1.1 kg/m3 | mass density (283.57 K, 40000 kPa): 1073.71 ± 1.1 kg/m3 | mass density (283.57 K, 50000 kPa): 1079 ± 1.2 kg/m3 | mass density (283.57 K, 60000 kPa): 1084.1 ± 1.2 kg/m3 | mass density (283.57 K, 70000 kPa): 1089.01 ± 1.2 kg/m3 | mass density (283.57 K, 80000 kPa): 1093.63 ± 1.2 kg/m3 | mass density (283.57 K, 90010 kPa): 1098.12 ± 1.3 kg/m3 | mass density (283.58 K, 20000 kPa): 1062.29 ± 1.1 kg/m3 | mass density (283.58 K, 25000 kPa): 1065.25 ± 1.1 kg/m3 | mass density (293.49 K, 100 kPa): 1039.78 ± 1.1 kg/m3 | mass density (293.49 K, 20000 kPa): 1053.11 ± 1.1 kg/m3 | mass density (293.49 K, 25000 kPa): 1056.23 ± 1.1 kg/m3 | mass density (293.49 K, 40000 kPa): 1065.07 ± 1.1 kg/m3 | mass density (293.49 K, 60000 kPa): 1075.9 ± 1.2 kg/m3 | mass density (293.5 K, 1000 kPa): 1040.41 ± 1.1 kg/m3 | mass density (293.5 K, 3000 kPa): 1041.81 ± 1.1 kg/m3 | mass density (293.5 K, 5000 kPa): 1043.2 ± 1.1 kg/m3 | mass density (293.5 K, 10000 kPa): 1046.6 ± 1.1 kg/m3 | mass density (293.5 K, 15000 kPa): 1049.91 ± 1.1 kg/m3 | mass density (293.5 K, 30000 kPa): 1059.25 ± 1.1 kg/m3 | mass density (293.5 K, 50000 kPa): 1070.61 ± 1.1 kg/m3 | mass density (293.5 K, 70000 kPa): 1080.89 ± 1.2 kg/m3 | mass density (293.5 K, 80000 kPa): 1085.77 ± 1.2 kg/m3 | mass density (293.51 K, 90000 kPa): 1090.39 ± 1.2 kg/m3 | mass density (293.51 K, 100000 kPa): 1094.9 ± 1.3 kg/m3 | mass density (303.42 K, 100 kPa): 1028.98 ± 1.1 kg/m3 | mass density (303.42 K, 1000 kPa): 1029.62 ± 1.1 kg/m3 | mass density (303.42 K, 20000 kPa): 1042.98 ± 1.1 kg/m3 | mass density (303.42 K, 25000 kPa): 1046.26 ± 1.1 kg/m3 | mass density (303.42 K, 60000 kPa): 1066.78 ± 1.1 kg/m3 | mass density (303.42 K, 70000 kPa): 1072.05 ± 1.2 kg/m3 | mass density (303.42 K, 80000 kPa): 1077.09 ± 1.2 kg/m3 | mass density (303.43 K, 3000 kPa): 1031.12 ± 1.1 kg/m3 | mass density (303.43 K, 5000 kPa): 1032.59 ± 1.1 kg/m3 | mass density (303.43 K, 15000 kPa): 1039.61 ± 1.1 kg/m3 | mass density (303.43 K, 30000 kPa): 1049.4 ± 1.1 kg/m3 | mass density (303.43 K, 40000 kPa): 1055.5 ± 1.1 kg/m3 | mass density (303.43 K, 50000 kPa): 1061.26 ± 1.1 kg/m3 | mass density (303.43 K, 90000 kPa): 1081.92 ± 1.2 kg/m3 | mass density (303.43 K, 100000 kPa): 1086.58 ± 1.3 kg/m3 | mass density (303.44 K, 10000 kPa): 1036.15 ± 1.1 kg/m3 | mass density (313.31 K, 15000 kPa): 1030.05 ± 1.1 kg/m3 | mass density (313.31 K, 50000 kPa): 1052.81 ± 1.1 kg/m3 | mass density (313.32 K, 5000 kPa): 1022.61 ± 1.1 kg/m3 | mass density (313.32 K, 10000 kPa): 1026.44 ± 1.1 kg/m3 | mass density (313.32 K, 30000 kPa): 1040.39 ± 1.1 kg/m3 | mass density (313.32 K, 40000 kPa): 1046.78 ± 1.1 kg/m3 | mass density (313.33 K, 100 kPa): 1018.75 ± 1 kg/m3 | mass density (313.33 K, 1000 kPa): 1019.44 ± 1 kg/m3 | mass density (313.33 K, 3000 kPa): 1021.07 ± 1.1 kg/m3 | mass density (313.33 K, 20000 kPa): 1033.63 ± 1.1 kg/m3 | mass density (313.33 K, 25000 kPa): 1037.06 ± 1.1 kg/m3 | mass density (313.33 K, 60000 kPa): 1058.52 ± 1.1 kg/m3 | mass density (313.33 K, 70000 kPa): 1064.01 ± 1.2 kg/m3 | mass density (313.33 K, 80000 kPa): 1069.21 ± 1.2 kg/m3 | mass density (313.33 K, 90000 kPa): 1074.2 ± 1.2 kg/m3 | mass density (313.33 K, 100000 kPa): 1078.99 ± 1.2 kg/m3 | mass density (323.18 K, 100 kPa): 1008.44 ± 1 kg/m3 | mass density (323.18 K, 1000 kPa): 1009.19 ± 1 kg/m3 | mass density (323.18 K, 3000 kPa): 1010.86 ± 1 kg/m3 | mass density (323.18 K, 10000 kPa): 1016.52 ± 1 kg/m3 | mass density (323.18 K, 15000 kPa): 1020.37 ± 1.1 kg/m3 | mass density (323.18 K, 20000 kPa): 1024.08 ± 1.1 kg/m3 | mass density (323.18 K, 25000 kPa): 1027.7 ± 1.1 kg/m3 | mass density (323.19 K, 5000 kPa): 1012.5 ± 1 kg/m3 | mass density (323.19 K, 30000 kPa): 1031.17 ± 1.1 kg/m3 | mass density (323.19 K, 40000 kPa): 1037.8 ± 1.1 kg/m3 | mass density (323.19 K, 50000 kPa): 1044.06 ± 1.1 kg/m3 | mass density (323.19 K, 60000 kPa): 1050.01 ± 1.1 kg/m3 | mass density (323.19 K, 70000 kPa): 1055.67 ± 1.1 kg/m3 | mass density (323.19 K, 80000 kPa): 1061.06 ± 1.2 kg/m3 | mass density (323.19 K, 90000 kPa): 1066.22 ± 1.2 kg/m3 | mass density (323.19 K, 100000 kPa): 1071.19 ± 1.2 kg/m3 | mass density (333.1 K, 100 kPa): 998.31 ± 1 kg/m3 | mass density (333.1 K, 1000 kPa): 999.11 ± 1 kg/m3 | mass density (333.1 K, 3000 kPa): 1000.91 ± 1 kg/m3 | mass density (333.1 K, 5000 kPa): 1002.64 ± 1 kg/m3 | mass density (333.11 K, 10000 kPa): 1006.85 ± 1 kg/m3 | mass density (333.11 K, 15000 kPa): 1010.94 ± 1 kg/m3 | mass density (333.11 K, 20000 kPa): 1014.85 ± 1 kg/m3 | mass density (333.11 K, 25000 kPa): 1018.62 ± 1.1 kg/m3 | mass density (333.11 K, 30000 kPa): 1022.27 ± 1.1 kg/m3 | mass density (333.11 K, 40000 kPa): 1029.2 ± 1.1 kg/m3 | mass density (333.11 K, 50000 kPa): 1035.72 ± 1.1 kg/m3 | mass density (333.11 K, 60000 kPa): 1041.91 ± 1.1 kg/m3 | mass density (333.11 K, 70000 kPa): 1047.69 ± 1.1 kg/m3 | mass density (333.11 K, 80000 kPa): 1053.26 ± 1.1 kg/m3 | mass density (333.11 K, 90000 kPa): 1058.57 ± 1.2 kg/m3 | mass density (333.11 K, 100000 kPa): 1063.7 ± 1.2 kg/m3 | mass density (342.97 K, 100 kPa): 987.87 ± 1 kg/m3 | mass density (342.97 K, 15000 kPa): 1001.22 ± 1 kg/m3 | mass density (342.97 K, 20000 kPa): 1005.3 ± 1 kg/m3 | mass density (342.97 K, 30000 kPa): 1013.07 ± 1 kg/m3 | mass density (342.97 K, 40000 kPa): 1020.32 ± 1.1 kg/m3 | mass density (342.97 K, 50000 kPa): 1027.1 ± 1.1 kg/m3 | mass density (342.97 K, 70000 kPa): 1039.64 ± 1.1 kg/m3 | mass density (342.97 K, 90000 kPa): 1050.91 ± 1.2 kg/m3 | mass density (342.97 K, 100000 kPa): 1056.19 ± 1.2 kg/m3 | mass density (342.98 K, 1000 kPa): 988.73 ± 1 kg/m3 | mass density (342.98 K, 3000 kPa): 990.63 ± 1 kg/m3 | mass density (342.98 K, 5000 kPa): 992.45 ± 1 kg/m3 | mass density (342.98 K, 10000 kPa): 996.91 ± 1 kg/m3 | mass density (342.98 K, 25000 kPa): 1009.24 ± 1 kg/m3 | mass density (342.98 K, 60000 kPa): 1033.53 ± 1.1 kg/m3 | mass density (342.98 K, 80000 kPa): 1045.43 ± 1.1 kg/m3 | mass density (352.82 K, 100 kPa): 977.64 ± 1 kg/m3 | mass density (352.82 K, 1000 kPa): 978.58 ± 1 kg/m3 | mass density (352.82 K, 3000 kPa): 980.59 ± 1 kg/m3 | mass density (352.82 K, 5000 kPa): 982.53 ± 1 kg/m3 | mass density (352.82 K, 10000 kPa): 987.26 ± 1 kg/m3 | mass density (352.82 K, 15000 kPa): 991.79 ± 1 kg/m3 | mass density (352.83 K, 20000 kPa): 996.08 ± 1 kg/m3 | mass density (352.83 K, 25000 kPa): 1000.24 ± 1 kg/m3 | mass density (352.83 K, 30000 kPa): 1004.25 ± 1 kg/m3 | mass density (352.83 K, 40000 kPa): 1011.8 ± 1 kg/m3 | mass density (352.83 K, 50000 kPa): 1018.87 ± 1.1 kg/m3 | mass density (352.83 K, 60000 kPa): 1025.54 ± 1.1 kg/m3 | mass density (352.83 K, 70000 kPa): 1031.82 ± 1.1 kg/m3 | mass density (352.83 K, 80000 kPa): 1037.81 ± 1.1 kg/m3 | mass density (352.83 K, 90000 kPa): 1043.47 ± 1.1 kg/m3 | mass density (352.83 K, 100010 kPa): 1048.95 ± 1.2 kg/m3 | mass density (362.66 K, 100 kPa): 967.3 ± 0.99 kg/m3 | mass density (362.66 K, 1000 kPa): 968.28 ± 0.99 kg/m3 | mass density (362.66 K, 3000 kPa): 970.41 ± 0.99 kg/m3 | mass density (362.66 K, 60000 kPa): 1017.41 ± 1.1 kg/m3 | mass density (362.67 K, 5000 kPa): 972.48 ± 1 kg/m3 | mass density (362.67 K, 10000 kPa): 977.45 ± 1 kg/m3 | mass density (362.67 K, 15000 kPa): 982.21 ± 1 kg/m3 | mass density (362.67 K, 20000 kPa): 986.74 ± 1 kg/m3 | mass density (362.67 K, 25000 kPa): 991.07 ± 1 kg/m3 | mass density (362.67 K, 30000 kPa): 995.26 ± 1 kg/m3 | mass density (362.67 K, 40000 kPa): 1003.16 ± 1 kg/m3 | mass density (362.67 K, 50000 kPa): 1010.5 ± 1.1 kg/m3 | mass density (362.67 K, 70000 kPa): 1023.98 ± 1.1 kg/m3 | mass density (362.67 K, 80000 kPa): 1030.14 ± 1.1 kg/m3 | mass density (362.67 K, 90000 kPa): 1036.01 ± 1.1 kg/m3 | mass density (362.67 K, 100000 kPa): 1041.65 ± 1.2 kg/m3
